Each structure is given as a SMILES string.

A word on the logP: it is a log measure of how a compound divides between an organic and an aqueous phase. Lower therefore signals lower lipophilicity.

The nature of this series: lipophilicity (log P) of the quencher. In kind it is physicochemical. The note with it: organic (oil) phase / aqueous phase partition. The text has this:
Lipophilicity, most commonly referred to as the Log P, represents the ratio at equilibrium of the concentration of a compound between two phases, an oil and a […] phase. The Log P value is a constant defined in the following manner: Log P=log 10 (Partition Coefficient) Partition Coefficient, P=[organic]/[aqueous] where the square bracket parenthesis “[ ]” indicates the concentration of solute in the organic and aqueous partition.
`CCCCCCCCN(CCCCCCCC)C(=O)CCCCCCC` [Quencher-B]: the logP is 10.2.

On to `CCCCCCCCN(CCCCCCCC)C(C)=O` [Quencher-I], for which the lipophilicity (logP) is 6.69. The value for `CCCCCCCCN(CCCCCCCC)CCCCCCCC` [Quencher-A] was 10.8; that for `CCCCCCCCCCCC(=O)N(CC)CC` [Quencher-H] was 5.6.

Values taken from US11874603B2, “Photoresist composition comprising amide compound and pattern formation methods using the same” (Rohm And Haas Electronic Materials Korea Ltd., priority 2021, dated 2024).
